Where “and” joins values, the source holds several entries; their conditions need not be identical. Identical values can stand only once.
Assay: In vitro release
Type: physicochemical
Conditions: for Cumulative HC Release: Fig 5c pellet 1x1 mm; for Cumulative HC Release / Cumulative Pred Release: 4 ml PBS; for Cumulative HC Release (%): Fig 5c pellet; for Cumulative HC Release (%) / Cumulative Pred Release (%): PBS; for Cumulative TA Release (%) / Cumulative Dex Release (%): FBS; for Cumulative Pred Release: Fig 5a pellet 1x1 mm; for Cumulative Pred Release (%): Fig 5a pellet; for Cumulative SM Release (%), avg / Cumulative SM Release (ng), avg: Fig 6c; for Cumulative Dex Release: Fig 5g pellet 1x1 mm, 2 ml FBS; for Cumulative Dex Release (%): Fig 5g pellet
Procedure: Pellets for release studies. Crystalline drug dimers were weighed on a stainless steel coupon. In the case of blends with a second drug, the dimer and drug were mixed at the desired mass ratio with mortar and pestle prior to weighing. Samples were transferred to a heat press (Carver Laboratory Press). A PTFE mold containing an array of 1 mm diameter holes of 1 mm depth was placed on top of the melt, and pressure was applied for 2 min. Molded pellets were cooled to room temperature and punched out of the mold, yielding a pellet of 1 mm height × 1 mm diameter.
Release studies were carried out using different media, including PBS (pH 7.4, Gibco), 100% FBS (Sigma, F1051), 1% FBS in PBS pH 7.4, and 3.6% BSA (Sigma, A7906) in PBS (pH 7.4, Gibco). […] Samples were incubated in release medium at 37 °C under constant agitation on an orbital shaker at 115 rpm (VWR). At designated timepoints, sampling was performed by complete removal of medium and replenishment with fresh buffer. Sampling timepoints included 24 h and then every 3–4 days thereafter. For PBS release conditions, samples were analyzed directly. For samples with protein (100% FBS, 1% FBS, 3.6% BSA), protein was precipitated by addition of acetonitrile. Samples were vortexed and centrifuged to separate extracted drug from precipitated protein. The supernatant was then analyzed for drug concentration by HPLC.

CC12CCC(=O)C=C1CCC1C2C(O)CC2(C)C1CCC2(O)C(=O)COC(=O)OCCOCCOCCOC(=O)OCC(=O)C1(O)CCC2C3CCC4=CC(=O)CCC4(C)C3C(O)CC21C (centres unmarked) [HC-TEG-HC]
Cumulative HC Release (Day 1, samples and avg): 3582.46 ng and 3140.26 ng and 2450.67 ng
Cumulative HC Release (Day 1, samples and avg, mean): 3057.80 ng
Cumulative HC Release (Day 3, samples and avg): 8019.98 ng and 7816.75 ng and 5925.61 ng
Cumulative HC Release (Day 3, samples and avg, mean): 7254.11 ng
Cumulative HC Release (Day 7, samples and avg): 21489.19 ng and 20555.93 ng and 15454.82 ng
Cumulative HC Release (Day 7, samples and avg, mean): 19166.65 ng
Cumulative HC Release (Day 11, samples and avg): 36020.08 ng and 33028.17 ng and 24138.38 ng
Cumulative HC Release (Day 11, samples and avg, mean): 31062.21 ng
Cumulative HC Release (Day 14, samples and avg): 45741.74 ng and 40347.40 ng and 29842.17 ng
Cumulative HC Release (Day 14, samples and avg, mean): 38643.77 ng
Cumulative HC Release (%) (Day 1, avg): 0.51%
Cumulative HC Release (%) (Day 3, avg): 1.20%
Cumulative HC Release (%) (Day 7, avg): 3.17%
Cumulative HC Release (%) (Day 11, avg): 5.15%
Cumulative HC Release (%) (Day 14, avg): 6.40%

CC1(C)OC2CC3C4CCC5=CC(=O)C=CC5(C)C4(F)C(O)CC3(C)C2(C(=O)COC(=O)OCCOCCOCCOC(=O)OCC(=O)C23OC(C)(C)OC2CC2C4CCC5=CC(=O)C=CC5(C)C4(F)C(O)CC23C)O1 (centres unmarked) [TA-TEG-TA]
Cumulative TA Release (Fig 5b pellet 1x1 mm, 4 ml FBS, Day 3, samples and avg): 5664.02 ng and 5830.61 ng and 10508.43 ng and 8884.74 ng and 7887.68 ng
Cumulative TA Release (Fig 5b pellet 1x1 mm, 4 ml FBS, Day 3, samples and avg, mean): 7755.10 ng
Cumulative TA Release (Fig 5b pellet 1x1 mm, 4 ml FBS, Day 10, samples and avg): 24788.43 ng and 27087.36 ng and 33297.79 ng and 37315.92 ng and 18944.25 ng
Cumulative TA Release (Fig 5b pellet 1x1 mm, 4 ml FBS, Day 10, samples and avg, mean): 28286.75 ng
Cumulative TA Release (Fig 5b pellet 1x1 mm, 4 ml FBS, Day 14, samples and avg): 34850.40 ng and 35016.99 ng and 40361.16 ng and 49853.28 ng and 32172.64 ng
Cumulative TA Release (Fig 5b pellet 1x1 mm, 4 ml FBS, Day 14, samples and avg, mean): 38450.90 ng
Cumulative TA Release (%) (Fig 5b pellet, Day 1, avg): 0.13%
Cumulative TA Release (%) (Fig 5b pellet, Day 3, avg): 0.96%
Cumulative TA Release (%) (Fig 5b pellet, Day 7, avg): 2.37%
Cumulative TA Release (%) (Fig 5b pellet, Day 10, avg): 3.49%
Cumulative TA Release (%) (Fig 5b pellet, Day 14, avg): 4.75%
Cumulative TA Release (Fig 5f microparticles, 10 ml FBS, 1st time point (day not given), samples and avg): 2977.29 ng and 2848.37 ng and 4097.61 ng
Cumulative TA Release (Fig 5f microparticles, 10 ml FBS, 1st time point (day not given), samples and avg, mean): 3307.76 ng
Cumulative TA Release (Fig 5f microparticles, 10 ml FBS, 2nd time point (day not given), samples and avg): 14594.84 ng and 16537.75 ng and 15417.43 ng
Cumulative TA Release (Fig 5f microparticles, 10 ml FBS, 2nd time point (day not given), samples and avg, mean): 15516.68 ng
Cumulative TA Release (Fig 5f microparticles, 10 ml FBS, 3rd time point (day not given), samples and avg): 49825.05 ng and 51101.90 ng and 51098.83 ng
Cumulative TA Release (Fig 5f microparticles, 10 ml FBS, 3rd time point (day not given), samples and avg, mean): 50675.26 ng
Cumulative TA Release (Fig 5f microparticles, 10 ml FBS, 4th time point (day not given), samples and avg): 60024.55 ng and 61820.14 ng and 64573.36 ng
Cumulative TA Release (Fig 5f microparticles, 10 ml FBS, 4th time point (day not given), samples and avg, mean): 62139.35 ng
Cumulative TA Release (Fig 5f microparticles, 10 ml FBS, 5th time point (day not given), samples and avg): 83317.99 ng and 79582.57 ng and 89772.87 ng
Cumulative TA Release (Fig 5f microparticles, 10 ml FBS, 5th time point (day not given), samples and avg, mean): 84224.47 ng
Cumulative TA Release (%) (Fig 5f microparticles, 1st time point, avg): 2.67%
Cumulative TA Release (%) (Fig 5f microparticles, 2nd time point, avg): 12.50%
Cumulative TA Release (%) (Fig 5f microparticles, 3rd time point, avg): 40.83%
Cumulative TA Release (%) (Fig 5f microparticles, 4th time point, avg): 50.07%
Cumulative TA Release (%) (Fig 5f microparticles, 5th time point, avg): 67.87%

CC12C=CC(=O)C=C1CCC1C2C(O)CC2(C)C1CCC2(O)C(=O)COC(=O)OCCOCCOCCOC(=O)OCC(=O)C1(O)CCC2C3CCC4=CC(=O)C=CC4(C)C3C(O)CC21C (centres unmarked) [Pred-TEG-Pred]
Cumulative Pred Release (Day 1, samples and avg): 4849.98 ng and 3117.45 ng and 2848.01 ng
Cumulative Pred Release (Day 1, samples and avg, mean): 3605.15 ng
Cumulative Pred Release (Day 3, samples and avg): 9969.33 ng and 8304.40 ng and 8589.91 ng
Cumulative Pred Release (Day 3, samples and avg, mean): 8954.55 ng
Cumulative Pred Release (Day 7, samples and avg): 27879.94 ng and 24662.51 ng and 25461.45 ng
Cumulative Pred Release (Day 7, samples and avg, mean): 26001.30 ng
Cumulative Pred Release (Day 14, samples and avg): 55975.76 ng and 47712.14 ng and 52962.20 ng
Cumulative Pred Release (Day 14, samples and avg, mean): 52216.70 ng
Cumulative Pred Release (%) (Day 1, avg): 0.38%
Cumulative Pred Release (%) (Day 3, avg): 0.94%
Cumulative Pred Release (%) (Day 7, avg): 2.72%
Cumulative Pred Release (%) (Day 14, avg): 5.45%

CCN(CC)CCNC(=O)c1c(C)[nH]c(/C=C2\C(=O)Nc3ccc(F)cc32)c1C [sunitinib malate, reference compound]
Cumulative SM Release (%), avg (Day 1, avg): 3.88%
Cumulative SM Release (ng), avg (Day 1, avg): 5838.79 ng
Cumulative SM Release (%), avg (Day 3, avg): 5.66%
Cumulative SM Release (ng), avg (Day 3, avg): 8518.35 ng
Cumulative SM Release (%), avg (Day 8, avg): 6.76%
Cumulative SM Release (ng), avg (Day 8, avg): 10163.91 ng
Cumulative SM Release (%), avg (Day 10, avg): 7.42%
Cumulative SM Release (%), avg (Day 14, avg): 8.14%
Cumulative SM Release (ng), avg (Day 14, avg): 12242.96 ng

CC1CC2C3CCC4=CC(=O)C=CC4(C)C3(F)C(O)CC2(C)C1(O)C(=O)COC(=O)OCCCCCCOC(=O)OCC(=O)C1(O)C(C)CC2C3CCC4=CC(=O)C=CC4(C)C3(F)C(O)CC21C (stereo not drawn) [Dex-Hex-Dex]
Cumulative Dex Release (Day 3, samples and avg): 5606.66 ng and 6179.38 ng and 5887.12 ng
Cumulative Dex Release (Day 3, samples and avg, mean): 5891.06 ng
Cumulative Dex Release (Day 7, samples and avg (Dex-Hex-Dex)): 14987.41 ng and 15994.59 ng and 15970.98 ng
Cumulative Dex Release (Day 7, samples and avg (Dex-Hex-Dex), mean): 15650.99 ng
Cumulative Dex Release (Day 10, samples and avg): 21287.07 ng and 22357.19 ng and 22516.81 ng
Cumulative Dex Release (Day 10, samples and avg, mean): 22053.69 ng
Cumulative Dex Release (Day 14, samples and avg (Dex-Hex-Dex)): 32738.37 ng and 34997.20 ng and 34417.18 ng
Cumulative Dex Release (Day 14, samples and avg (Dex-Hex-Dex), mean): 34050.91 ng
Cumulative Dex Release (%) (Day 3, avg): 0.42%
Cumulative Dex Release (%) (Day 7, avg (Dex-Hex-Dex)): 1.13%
Cumulative Dex Release (%) (Day 10, avg): 1.59%
Cumulative Dex Release (%) (Day 14, avg (Dex-Hex-Dex)): 2.45%

Reference: publication PMC8129133, “Polymer-free corticosteroid dimer implants for controlled and sustained drug delivery” (Nature Communications, 2021)
